Usually IC50 stands for the concentration that gives 50% inhibition.

In ChEMBL document CHEMBL5729117, “Heteroaryl Rheb inhibitors and uses thereof” (2022) one finds IC50 data, which are given here for five molecules.

For the test, the target named is GTP-binding protein Rheb (Homo sapiens, UniProt Q15382). Briefly: In Vitro Kinase Assay: For the Rheb-dependent in vitro kinase assay, HA-GST-Rheb was first loaded with GTP-γ-S (Millipore #20-176) by incubating 600 ng/μL Rheb with 10 mM EDTA and 0.4 mM GTP-γ-S at 30° C. for 10 minutes. MgCl2 was added to a final concentration of 20 mM to stop the reaction. This mixture was used at 20× in the kinase assay.Loaded HA-GST-Rheb was then incubated with compound (final DMSO concentration 1%) for 30 minutes at room temperature. mTORC1, GFP-4E-BP1 substrate (Life Technologies #PV4759), and kinase assay buffer (HEPES pH 7.4, KCl, MgCl2) were added to the Rheb-compound mixture and incubated at room temperature for 20 minutes. ATP was then added, and the kinase reaction proceeded at 30° C. for 45 min before being stopped by the addition of SDS-PAGE loading buffer for Westerns or 10 mM EDTA for the LanthaScreen readout. During the kinase reaction, the final concentration of reagents is as follows: Rheb—30 ng/μL, compound—variable, GTPγS—0.02 mM, EDTA—0.5 mM, MgCl2—1 mM, mTORC1—fixed volume of prep (molarity unknown), GFP-4E-BP1 substrate—15 ng/μL, ATP—0.5 mM. For LanthaScreen analysis (Thermo Fisher #PV4757), the manufacturer's instructions were followed and conditions were optimized for the amount of Rheb and mTORC1. The final concentration of reagents was as follows: 100 nM loaded HA-GST-Rheb, compound (variable), 0.5 mM EDTA, 10 mM MgCl2, 25 mM HEPES pH 7.4, 50 mM KCl, mTORC1 (fixed volume—0.1 μL in 10 μL total volume), 0.4 μM GFP-4E-BP1 substrate, 0.5 mM ATP. Results were read on an EnVision reader (PerkinElmer) using 495ex/520em filters (Life Technologies, #PV00315). (In TR-FRET formats the signal depends on donor and acceptor labels being close together.)
Sequence of GTP-binding protein Rheb (Q15382 whole entry): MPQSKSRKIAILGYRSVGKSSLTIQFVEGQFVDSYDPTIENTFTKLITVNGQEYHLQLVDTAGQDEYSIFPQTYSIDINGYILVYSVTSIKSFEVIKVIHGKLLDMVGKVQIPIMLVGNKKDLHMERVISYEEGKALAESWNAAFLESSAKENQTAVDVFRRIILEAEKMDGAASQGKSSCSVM
Regarding `Cc1cc(C(C)(C)C)ccc1Sc1cc(Cl)cc2[nH]c(CO)cc12`, the IC50 is under 10 µM.

On to `CN1CCCN(c2ccc(NC(=O)c3cc4c(-c5cc(Cl)cc(Cl)c5)cc(Cl)cc4[nH]3)cc2F)CC1`, for which the IC50 is under 10 µM.

Consider `Cc1cc(C(C)(C)C)ccc1Sc1cc(Cl)cc2[nH]c(C(=O)O)cc12`, for which the IC50 was under 10 µM. As for `OCc1cc2c(Sc3ccc(Cl)cc3Cl)cc(Cl)cc2[nH]1`, the figure is under 10 µM. Under `O=C(O)c1cc2c(Sc3ccc(C(F)(F)F)cc3)cc(Cl)cc2[nH]1` stands under 10 µM.
